Laboratory results taken from the NIST ThermoML archive (doi:10.1021/je060271a).

Settings: 283.15 K, Liquid, Vibrating tube method

CCCCCC(=O)OCC(COC(=O)CCCCC)(COC(=O)CCCCC)COC(=O)CCCCC [pentaerythritol tetrahexanoate]
Settings	mass density [kg/m3]
22895 kPa	1017
22911 kPa	1016.9
22928 kPa	1017
22946 kPa	1017
22963 kPa	1017
22982 kPa	1016.9
22997 kPa	1017.1
23012 kPa	1016.9
23030 kPa	1017.2
23045 kPa	1016.9
23060 kPa	1017
23075 kPa	1017
23093 kPa	1017
23108 kPa	1017.1
23124 kPa	1017.1
23142 kPa	1017.1
23157 kPa	1017
23175 kPa	1017
23191 kPa	1017.1
23206 kPa	1017.1
23221 kPa	1017.2
23240 kPa	1017
23255 kPa	1017.2
23274 kPa	1017.3
23290 kPa	1017.1
23305 kPa	1017
23323 kPa	1017.2
23339 kPa	1017.2
23354 kPa	1017.2
23370 kPa	1017.3
23389 kPa	1017
23405 kPa	1017.1
23422 kPa	1017.2
23437 kPa	1017.2
23456 kPa	1017.3
23472 kPa	1017.2
23488 kPa	1017.3
23507 kPa	1017.3
23523 kPa	1017.3
23539 kPa	1017.3
23555 kPa	1017.3
23574 kPa	1017.4
23590 kPa	1017.3
23607 kPa	1017.3
23627 kPa	1017.4
23640 kPa	1017.5
23659 kPa	1017.4
23675 kPa	1017.3
23691 kPa	1017.3
23711 kPa	1017.4
23726 kPa	1017.3
23746 kPa	1017.4
23762 kPa	1017.4
23778 kPa	1017.3
23794 kPa	1017.3
23813 kPa	1017.5
23830 kPa	1017.5
23849 kPa	1017.4
23866 kPa	1017.5
23883 kPa	1017.5
23902 kPa	1017.5
23919 kPa	1017.4
23935 kPa	1017.5
23951 kPa	1017.5
23971 kPa	1017.5
23988 kPa	1017.5
24004 kPa	1017.5
24024 kPa	1017.5
24041 kPa	1017.6
24061 kPa	1017.6
24078 kPa	1017.6
24095 kPa	1017.6
24111 kPa	1017.6
24131 kPa	1017.6
24148 kPa	1017.7
24185 kPa	1017.6
24202 kPa	1017.5
24222 kPa	1017.8
24239 kPa	1017.6
24272 kPa	1017.8
24327 kPa	1017.7
24364 kPa	1017.7
24382 kPa	1017.7
24399 kPa	1017.7
24419 kPa	1017.6
24436 kPa	1017.7
24457 kPa	1017.8
24474 kPa	1017.8
24492 kPa	1017.9
24509 kPa	1017.7
24530 kPa	1017.9
24548 kPa	1017.9
24565 kPa	1017.9
24586 kPa	1017.7
24603 kPa	1017.7
24620 kPa	1017.8
24641 kPa	1018
24659 kPa	1017.8
24676 kPa	1017.9
24697 kPa	1017.9
24715 kPa	1017.9
24733 kPa	1017.8
24754 kPa	1017.8
24772 kPa	1018
24789 kPa	1018
24810 kPa	1017.9
24828 kPa	1017.9
24846 kPa	1017.9
24867 kPa	1017.9
24884 kPa	1018
24903 kPa	1017.8
24924 kPa	1018
24942 kPa	1018
24960 kPa	1018.1
24981 kPa	1018
25000 kPa	1018
25018 kPa	1018
25037 kPa	1018.1
25059 kPa	1018.2
25077 kPa	1018
25095 kPa	1018.1
25117 kPa	1018.2
25135 kPa	1018.2
25154 kPa	1018.1
25175 kPa	1018.1
25194 kPa	1018.1
25212 kPa	1018.1
25234 kPa	1018.2
25253 kPa	1018.2
25272 kPa	1018.1
25290 kPa	1018.1
25309 kPa	1018.2
25331 kPa	1018.2
25350 kPa	1018.2
25372 kPa	1018.2
25391 kPa	1018.3
25410 kPa	1018.2
25428 kPa	1018.2
25451 kPa	1018.2
25470 kPa	1018.3
25489 kPa	1018.2
25511 kPa	1018.1
25530 kPa	1018.3
25553 kPa	1018.2
25572 kPa	1018.3
